# Laboratory results reported in patent US11384159B2, “B-1,3-1,6-glucan powder, glucan-containing composition, method for producing B-1,3-1,6-glucan powder, inclusion complex, method for producing inclusion complex, and method for recovering guest molecule” (MITSUBISHI GAS CHEMICAL COMPANY, INC., priority 2017, dated 2022).
# Experiment: Inclusion of poorly water-soluble substance (curcumin): absorbance of supernatant at 405 nm
# Format: physicochemical
# Conditions: 0.002 mol/L monomer glucose; curcumin in acetone, 1 vol. % acetone; 3 hours, 25° C.; after centrifugation
# Excerpt: In order to examine the change in characteristics of centrifugally regenerated β-1,3-1,6-glucan in association with powder formation, the envelopment and solubilizing capacity of the centrifugally regenerated β-1,3-1,6-glucan with respect to poorly water-soluble substances were compared.
# β-1,3-1,6-glucan (lyophilized) derived from Aureobasidium pullulans was used as the centrifugally regenerated β-1,3-1,6-glucan powder, and curcumin (available from Tokyo Chemical Industry Co., Ltd., catalog number: 00435) was used as the poorly water-soluble substance.
# The centrifugally regenerated β-1,3-1,6-glucan powder was dissolved in distilled water at a concentration of 1.0% by mass, and the glucose concentration was calculated through the phenol-sulfuric acid method, after which the solution was diluted and used. […]
# Each centrifugally regenerated β-1,3-1,6-glucan solution having a monomer glucose concentration adjusted to 0.002 mol/L was prepared at an amount of 1 mL each, and an acetone solution of curcumin adjusted to a concentration of 0.05 mol/L was added such that the final concentration of acetone was 1 vol. %. […] Centrifugation (KUBOTA3740 (available from Kubota Manufacturing Co., Ltd.), 14000 G, 5 minutes) was carried out, the insoluble matter was removed, and the absorbance of the supernatant at a wavelength of 405 nm was compared. […]
smiles,measurement,value
COc1cc(/C=C/C(=O)CC(=O)/C=C/c2ccc(O)c(OC)c2)ccc1O [curcumin],absorbance (wavelength of 405 nm) originating from the curcumin in the supernatant,0.045
